Experimental data from US12071431B2, “Pyridin-sulfonamide compounds for the treatment of conditions related to interleukin 1 beta” (ALLINKY BIOPHARMA, priority 2018, dated 2024).

Tested on: Bleomycin-induced IPF
Assay: Treatment of bleomycin-induced IPF in mice
Assay type: in vivo
Excerpt: Example 16: Effect of Compound 7 in the Treatment of Bleomycin-Induced IPF Timed pregnant mice (n=30) were selected for the study. The delivered pups were subcutaneously injected on the post-natal day 2 (PND-2) with 1.5 U/kg of Bleomycin (intra-tracheal) and were allowed to remain with the mother until they reached the weanling age. After weanling, the male pups were selected and fed with 60% kcal fat diet (Research Diet-D12492) for the next week. All the animals were observed twice daily for clinical signs. Mice were orally dosed with vehicle, test compounds and reference compound (Pirfenidone) twice daily morning (9.00 AM) and evening before the start of dark cycle (6:00 PM) from day 0 to 14. Animal body weight measurements were made daily for the complete duration of the experiment. Animals were dosed for 14 days with the test and reference compounds. Lung hydroxyproline level was estimated before the treatment start and on the termination day 14. Total cell count and differential leukocyte count in BALF were measured before the treatment start and on […]. Histopathology analysis in the form of H&E Ashcroft score was performed for the lung tissues. All the H&E stained tissue sections were examined by light microscopy. As per the below grading system (Kleiner et al., 2005) in 200× objective lens, IPF scoring was carried out. Collagen Proportion Area (% CPA) Measurement: Masson's Trichrome Staining All the Masson's trichrome stained tissue sections were examined by light microscopy in 100× objective lens. Randomly selected five fields (approx 684.85 μm×917.11m per field) from each lung were subjected to collagen proportion area measurement by using Image Pro Premier 9.1 software. The percentage of collagen proportion area was calculated by dividing collagen tissue area by total tissue area.

CCOc1ccc(Oc2cc(S(=O)(=O)N(C)C)cnc2N2CCC(Oc3ccc(Cl)cc3)CC2)cc1 [Compound 7] was tested, and the lung hydroxyproline levels (15 mg/kg dose, oral twice daily, 14 days, vs Bleomycin control, FIG. 4) was “significantly reduced”, the “reduction of lung hydroxyproline levels compared with Pirfenidone” value (Compound 7 15 mg/kg vs 100 mg/kg Pirfenidone) was “higher than for 100 mg/kg Pirfenidone” and the BALF macrophage counts (compared with Bleomycin control, Compound 7 p>0.05, Pirfenidone p<0.05, FIGS. 5A and 5B) was “reduced”. The “% CPA (Collagen Proportion Area)” value (lung, Masson's trichrome, in comparison with Bleomycin control, p<0.05, FIG. 6B) was “significant reduction” and the “fibrosis score (H&E Ashcroft Score)” value (lung, in comparison with Bleomycin control, p<0.05, FIG. 6A) was “significant reduction”.
